The source of these data is patent publication US5997843A, “Radiometal complexes that localise in hypoxic tissue” (priority 1993, dated 1999).

Series [1] relates to isolated (Langendorff) rat hearts. The series can be described thus: Isolated perfused heart (Langendorff), hypoxic vs oxic uptake/retention. The protocol: A 15-minute cold buffer washout period follows. y activity in the heart is monitored using a collimated NaI probe detector positioned over the heart.
Activity in hearts, relative to perfusate activity, is calculated for each nuclide and data evaluated for each compound for activity in hypoxic and oxic hearts (hypoxic:oxic ratio) and also relative to the 3 H-misonidazole activity (normalised retention) using Formula 1. [formula] Results

A further series can be described thus: Biodistribution in rats. The conditions noted are these: i.v. It counts as in vivo, male rats. The protocol:
Biodistribution in Rats--Methods
The quantitative biodistribution was studied in male rats at 2 minutes, 1 hour and 4 hours post-injection
Rats under light anaesthesia were injected intravenously with 0.1 ml of test agent. Three rats were sacrificed (anaesthesia followed by exsanguination) at 2, 60 and 240 minutes, post-injection. The percentage of the injected dose in the excreta and organs and tissues was determined by dissection and assay for radioactivity in an automatic gamma counter.

For series [2], the system named is xanthine oxidase. Description: Xanthine oxidase (XOD) with hypoxanthine in PBS reduction test. It counts as biochemical. The following applies: ^99m Tc complex, HPLC. The protocol: b) Xanthine Oxidase (XOD) with Hypoxanthine in Phosphate Buffered Saline (PBS)
Xanthine oxidase (16 mg) was weighed into a P6 vial. the vial was capped, oversealed and purged with nitrogen gas. Nitrogen purged phosphate buffered saline (1 ml) was added to the vial containing the xanthine oxidase.
Hypoxanthine (4.1 mg) was weighed into a P6 vial. The vial was capped, oversealed and purged with nitrogen gas. To the hypoxanthine was added (1 ml) of the xanthine oxidase in PBS.
1 ml of the ligand solution or 1 ml of the ^99m Tc-complex preparation was then added to the reducing mixture, shaken, and aliquots were taken at 20 minute time intervals.

The test system of series [3] is xanthine oxidase. The following applies: ^99 Tc complex; cited from earlier work.
The conditions of series [4]: rat, in vivo, 0.5 min; cited from earlier work.
Where [5] appears, read: second of two values, 60 or 240 min not assignable.

Turning to `CC(=NO)C(C)(C)NCCCNC(C)(C)C(C)=NO` [Compound X, reference compound], in series [1] (^99m Tc complex (or ^123 I-IAZA), 20 min infusion, 15 min washout), the “Hypoxic/Oxic Ratio (H/O)” value is listed as 5.1. Also, in series [1] (relative to ^3 H-misonidazole activity), the “Normalised Hypoxic Retention” value is on record as 0.50. Also, the Bladder/Urine in the series “Biodistribution in rats” (2 min post-injection) is given as 0.1 percent injected dose. The Blood is listed as 5.0 percent injected dose in “Biodistribution in rats” (2 min post-injection) and 6.8 percent injected dose in the series “Biodistribution in rats” (setting [5]). In addition, the values for the Gut in the series “Biodistribution in rats” (2 min post-injection), in the series “Biodistribution in rats” (60 min post-injection) and in “Biodistribution in rats” (240 min post-injection) were 11.7 percent injected dose, 51.5 percent injected dose and 53.4 percent injected dose, respectively. Further, the Kidney in the series “Biodistribution in rats” (2 min post-injection) amounted to 1.8 percent injected dose; in “Biodistribution in rats” (setting [5]) it was 2.1 percent injected dose. Moreover, the Liver in the series “Biodistribution in rats” (2 min post-injection) worked out at 27.9 percent injected dose; in the series “Biodistribution in rats” (setting [5]), 13.1 percent injected dose. In addition, the Muscle was 34.9 percent injected dose in the series “Biodistribution in rats” (2 min post-injection, ^99m Tc complex); 7.9 percent injected dose in “Biodistribution in rats” (60 min post-injection); 2.6 percent injected dose in “Biodistribution in rats” (240 min post-injection (third printed value)). The “Xanthine oxidase reduction test result” value with xanthine oxidase [2] is recorded as “positive”; in the series on xanthine oxidase [2] (listed as PnAO), “reduced by xanthine oxidase”. For the same molecule, the “reduction by xanthine oxidase” value with xanthine oxidase [3] was “not reduced”. For the same molecule, the brain uptake in series [4] is recorded as 1.3 % injected dose.
